Measured values from patent US9833497B2, “Human originated EGF domain proteins and use of the same” (CHENGDU SOURCEBIO LIMITED-LIABILITY COMPANY, priority 2013, dated 2017).

How the values were obtained:
Type in all cases: cell-based
[1] = system: Proteus mirabilis; experiment: MIC against Gram-negative bacteria: Proteus mirabilis; settings: for MIC against P. mirabilis: Proteus mirabilis, 96-well plate, 37° C., 10 h
Outline: (§1)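 Broth microdilution, LB medium, final inoculum 5×10^5 CFU/mL from McFarland 0.5 cultures. Recombinant human EGF domain proteins tested in two-fold steps, n=3. MIC: lowest concentration, no growth.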

[2] = system: Proteus vulgaris; experiment: MIC against Gram-negative bacteria: Proteus vulgaris; settings: for MIC against P. vulgaris: Proteus vulgaris, 96-well plate, 37° C., 10 h
Outline: as §1

[3] = system: Enterobacter cloacae; experiment: MIC against Gram-negative bacteria: Enterobacter cloacae; settings: for MIC against E. cloacae: Enterobacter cloacae, 96-well plate, 37° C., 10 h
Outline: as §1

[4] = system: Pseudomonas aeruginosa; experiment: MIC against Gram-negative bacteria: Pseudomonas aeruginosa; settings: for MIC against P. aeruginosa: Pseudomonas aeruginosa, 96-well plate, 37° C., 10 h
Outline: as §1

[5] = system: E. coli DH5α; experiment: Antibacterial activity: MIC and growth curve against E. coli DH5α in 96-well plate; settings: minimal inhibitory concentration against E. coli DH5α; 96-well plate, 5×10^5 CFU/mL, 37° C., judged after 8 h
Outline: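 Log-phase bacteria (OD600 ~0.5) resuspended in LB at 5×10^5 CFU/mL, exposed to recombinant protein at 50, 25, 12.5 μg/mL final in triplicate, 37 °C shaking at 175 rpm. OD600 read every 30 min; MIC is lowest concentration showing no growth.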

[6] = system: Citrobacter diversus; experiment: MIC against Gram-negative bacteria: Citrobacter diversus; settings: for MIC against C. diversus: Citrobacter diversus, 96-well plate, 37° C., 10 h
Outline: as §1

[7] = system: Aeromonas hydrophila; experiment: MIC against Gram-negative bacteria: Aeromonas hydrophila; settings: for MIC against A. hydrophila: Aeromonas hydrophila, 96-well plate, 37° C., 10 h
Outline: as §1

[8] = system: Klebsiella pneumonia; experiment: MIC against Gram-negative bacteria: Klebsiella pneumonia; settings: for MIC against K. pneumonia: Klebsiella pneumonia, 96-well plate, 37° C., 10 h
Outline: as §1

[9] = system: E. coli BL21; experiment: MIC against Gram-negative bacteria: E. coli BL21; settings: for MIC against E. coli BL21: 96-well plate, 37° C., 10 h
Outline: as §1

[10] = system: Serratia marcescens; experiment: MIC against Gram-negative bacteria: Serratia marcescens; settings: for MIC against S. marcescens: Serratia marcescens, 96-well plate, 37° C., 10 h
Outline: as §1

[11] = system: Moraxella catarrhalis; experiment: MIC against Gram-negative bacteria: Moraxella catarrhalis; settings: for MIC against M. catarrhalis: Moraxella catarrhalis, 96-well plate, 37° C., 10 h
Outline: as §1

[12] = P. mirabilis, 10 h cultivation at 37° C.
[13] = P. vulgaris, 10 h cultivation at 37° C.
[14] = E. cloacae, 10 h cultivation at 37° C.
[15] = P. aeruginosa, 10 h cultivation at 37° C.
[16] = C. diversus, 10 h cultivation at 37° C.
[17] = A. hydrophila, 10 h cultivation at 37° C.
[18] = K. pneumonia, 10 h cultivation at 37° C.
[19] = E. coli BL21, 10 h cultivation at 37° C.
[20] = S. marcescens, 10 h cultivation at 37° C.
[21] = M. catarrhalis, 10 h cultivation at 37° C.
[22] = 10 h cultivation at 37° C., 5×10^5 CFU/mL, two-fold serial dilution

PRT941 (EINECSSHPCLNEGTCVDGLGTYRCSCPLGYTGKNCQ; listed as Homo sapiens)
50 µg/mL: MIC [2, 13] | MIC [7, 17] | MIC [8, 18] | MIC [9, 19] | MIC [11, 21]
25 µg/mL: MIC [5]
12.5 µg/mL: MIC [1, 12] | MIC [3, 14] | MIC [4, 15] | MIC [6, 16] | MIC [10, 20]

PRT834 (DCADSPCCQQVCTNNPGGYECGCYAGYRLSADGCGCE; listed as Homo sapiens)
25 µg/mL: MIC (μg/mL) A. hydrophila ([7]; A. hydrophila, 10 h cultivation at 37° C., 5×10^5 CFU/mL) | MIC (μg/mL) K. pneumonia ([8]; K. pneumonia, 10 h cultivation at 37° C., 5×10^5 CFU/mL) | MIC (μg/mL) E. coli BL21 ([9]; E. coli BL21, 10 h cultivation at 37° C., 5×10^5 CFU/mL) | MIC (μg/mL) S. marcescens ([10]; S. marcescens, 10 h cultivation at 37° C., 5×10^5 CFU/mL) | MIC (μg/mL) M. catarrhalis ([11]; M. catarrhalis, 10 h cultivation at 37° C., 5×10^5 CFU/mL)
50 µg/mL: MIC (μg/mL) P. mirabilis ([1]; P. mirabilis, 10 h cultivation at 37° C., 5×10^5 CFU/mL) | MIC (μg/mL) E. cloacae ([3]; E. cloacae, 10 h cultivation at 37° C., 5×10^5 CFU/mL) | MIC [5]
12.5 µg/mL: MIC (μg/mL) P. vulgaris ([2]; P. vulgaris, 10 h cultivation at 37° C., 5×10^5 CFU/mL) | MIC (μg/mL) P. aeruginosa ([4]; P. aeruginosa, 10 h cultivation at 37° C., 5×10^5 CFU/mL) | MIC (μg/mL) C. diversus ([6]; C. diversus, 10 h cultivation at 37° C., 5×10^5 CFU/mL)

PRT1117 (EVDECASAPCLHGGSCLDGVGSFRCVCAPGYGGTRCQ; listed as Homo sapiens)
25 µg/mL: MIC P. mirabilis [1, 22] | MIC C. diversus [6, 22] | MIC S. marcescens [10, 22]
12.5 µg/mL: MIC P. vulgaris [2, 22] | MIC A. hydrophila [7, 22] | MIC K. pneumonia [8, 22] | MIC E. coli BL21 [9, 22] | MIC M. catarrhalis [11, 22]
50 µg/mL: MIC E. cloacae [3, 22] | MIC P. aeruginosa [4, 22] | MIC [5]

PRT1215 (SNDPCVEKPCPGDMQCVSYEASRRPFLCQCPPGKLGECS; listed as Homo sapiens)
12.5 µg/mL: MIC against P. vulgaris ([2]; 5×10^5 CFU/mL) | MIC against P. aeruginosa ([4]; 5×10^5 CFU/mL) | MIC against A. hydrophila ([7]; 5×10^5 CFU/mL)
50 µg/mL: MIC against E. cloacae ([3]; 5×10^5 CFU/mL) | MIC against E. coli BL21 ([9]; E. coli BL21, 5×10^5 CFU/mL) | MIC against M. catarrhalis ([11]; 5×10^5 CFU/mL)
25 µg/mL: MIC against P. mirabilis ([1]; 5×10^5 CFU/mL) | MIC [5] | MIC against C. diversus ([6]; 5×10^5 CFU/mL) | MIC against K. pneumonia ([8]; 5×10^5 CFU/mL) | MIC against S. marcescens ([10]; 5×10^5 CFU/mL)

PRT1203 (DIDECAEGRHYCRENTMCVNTPGSFMCICKTGYIRIDDYSCT; listed as Homo sapiens)
12.5 µg/mL: MIC against P. mirabilis ([1]; 5×10^5 CFU/mL) | MIC against E. cloacae ([3]; 5×10^5 CFU/mL) | MIC against C. diversus ([6]; 5×10^5 CFU/mL) | MIC against E. coli BL21 ([9]; E. coli BL21, 5×10^5 CFU/mL)
25 µg/mL: MIC against P. vulgaris ([2]; 5×10^5 CFU/mL) | MIC [5] | MIC against K. pneumonia ([8]; 5×10^5 CFU/mL)
50 µg/mL: MIC against P. aeruginosa ([4]; 5×10^5 CFU/mL) | MIC against A. hydrophila ([7]; 5×10^5 CFU/mL) | MIC against S. marcescens ([10]; 5×10^5 CFU/mL) | MIC against M. catarrhalis ([11]; 5×10^5 CFU/mL)

PRT898 (NNNECESNPCVNGGTCKDMTSGYVCTCREGFSGPNCQ; listed as Homo sapiens)
12.5 µg/mL: MIC [1, 12] | MIC [6, 16] | MIC [7, 17] | MIC [8, 18] | MIC [10, 20] | MIC [11, 21]
50 µg/mL: MIC [3, 14] | MIC [9, 19]
25 µg/mL: MIC [2, 13] | MIC [4, 15] | MIC [5]
